Columns and labels:
[1] = Forced degradation testing of Levetiracetam tablets and powder blends, 12 days, impurities by HPLC; format: physicochemical; conditions: Levetiracetam examples, forced degradation conditions
Protocol: 1.4 g of anhydrous di basic sodium phosphate in 1 liter of water. Adjusted to pH 3.5 with Orth phosphoric acid. Filter buffer with 0.45 um Nylon membrane filter paper. A mixture of 95 volumes of buffer solution and 5 volumes of Acetonitrile. To each 1 Liter of the mixture, add 1 g of sodium 1-hexanesulfonate monohydrate. […] Cool and make up to the volume with water. (Standard Stock Solution 2500 ppm). Next, Dilute 5 mL of standard solution a to 50 mL with water (Standard Solution (a) 250 ppm), further Dilute 5 mL of standard solution (a) to 100 mL with water (Standard Solution 12.5 ppm). […] Cool to room temperature and add 25 mL of acetonitrile to volumetric flask and make up the volume with water and centrifuge for 15 min @ 3500 RPM. filter the solution with 0.45 μm PVDF Millipore membrane syringe filter by discarding first 5 mL of filtrate. Dilute 5 mL of filtrate to 10 mL with water (2500 ppm). This group of examples is subjected to forced degradation testing conditions, where each example is formed into a tablet and then stored at 60 to 80 degrees C. and 75% relative humidity for a period of 5 or 12 days. At the end of the 5 days or 12 days each tablet is tested for its pH level and percent impurities. […]

[2] = Forced degradation testing of Levetiracetam blends (Table 8), Levetiracetam acid and total impurities by HPLC; format: physicochemical; conditions: blend, 12 Day exposure, 60 C./75% RH

Row | WT % IMPURITY [1] [WT %] | Levetiracetam Acid [2] | Structure (SMILES)
1 | 0.02 |  | CC[C@@H](C(N)=O)N1CCCC1=O [EX 31, Levetiracetam]
2 |  | 0.01 | CC[C@@H](C(N)=O)N1CCCC1=O [EX 34, Levetiracetam]
